Earlier results as cited in article PMC10656230, “Disruption of the productive encounter complex results in dysregulation of DIAPH1 activity” (The Journal of Biological Chemistry, 2023).

Tests used:
DID = settings: DAD without RRKR motif vs
From the text: Chemical shifts (δ) and cross peak intensities (I) were monitored by using heteronuclear single–quantum coherence (^1H-^15N HSQC) NMR spectroscopy ([38]) (Fig. S1A). […] Negligible perturbations occurred beyond a 1:1 mole ratio, indicating a 1:1 stoichiometry for the complex. […] H ...

DID E273K = settings: DID mutation E273K, no 2- to 3-fold decrease
From the text: (§1) Our findings identify E326 and E327 as critical for binding (Figs. 3D, 4 and S1). The E326 and E327 acidic patch is located greater than 30 Å away from the Rho GTPase binding site and represents a new surface for DIAPH1 regulation (Fig. S4B) ([25]). Interruption of the electrostatic interaction between the basic RRKR motif an ...

DID R278E = settings: DID mutation R278E, no 2- to 3-fold decrease
From the text: as §1

For DETGVMDSLLEALQSGAAFRRKRGPRQAN [DAD], which “decrease in DID-DAD binding affinity on removal of the RRKR motif of DAD” value (DID) is on record?
Its value is 5 fold.

And the “decrease in DID-DAD binding affinity” value (DID E273K)?
Its value is “did not”.

What about the “decrease in DID-DAD binding affinity” value (DID R278E) of the same sequence?
The value was “did not”.
